Patent US20260102428A1, “COMPOSITIONS AND METHODS FOR THE INHIBITION OF METHICILLIN RESISTANT STAPHYLOCOCCUS AUREUS” (priority 2022, published 2026)
“And” between values parts separate entries of the source, which are not always exact repeats. Identical values can stand only once. Counter-ions that a name gives are not always drawn. Bridge positions count the residues as written; N and C are the ends. Square brackets hold non-standard residues; d marks the D form. Peptide text beside a SMILES is read from it. * marks the point of attachment. Ileψ(thiazoline)Cys = CC[C@H](C)[C@H](N)C1=N[C@H](C(=O)*)CS1; dOrn = NCCC[C@@H](N)C(=O)O

Key:
[1] = system: MRSA strain USA300-LAC; assay: Zn(II)/Cu-dependent antibiotic screening of the Selleckchem bioactives library (resazurin growth readout); assay type: cell-based, Staphylococcus aureus; details: compound 10 μM, hit = growth reduced by at least 50%; for Activity class in Zn-dependent screening: with vs without 25 μM ZnSO4, 1×RPMI 1640; for Activity class in Cu-dependent screening: with vs without 25 μM CuSO4, 1×RPMI 1640
[2] = system: S. aureus JE2; assay type: cell-based, Staphylococcus aureus; details: 0.25-4× MIC, daily passage 1:100
[3] = system: clinical multidrug-resistant MRSA isolates; assay: Minimal inhibitory concentration against clinical isolates (dose-response curves)
Experimental: Growth was determined after 20 h of incubation at 37° C. using A600 measurements as a readout. Percentage growth was calculated by normalizing the A600 measurements relative to that of the compound-untreated control of each metal condition. Data represent the mean±SEM (n=3 biological replicates, 3 technical replicates each). […] Data represent the mean±SEM (n=3 biological replicates, 3 technical replicates each).
All S. aureus strains utilized in this study were routinely cultured in Mueller-Hinton medium at 37° C. shaking at 180 rpm prior to transfer into experiment-specific media. […] Lastly, clinical multi-drug resistant MRSA strains were isolated, characterized for clinical drug resistance, de-identified, and obtained from UAB Laboratory Medicine.
The minimal inhibitory concentration (MIC) of the tested compounds was determined using dose-response curves as previously described. Briefly, each strain was cultured to mid-exponential phase in MH medium, as determined by OD600 measurement. S. aureus cultures were then normalized to an OD600 of 0.005 for transfer into the assay plates. Each strain was treated with compounds serially titrated in the assay medium in 96-well flat-bottom plastic plates with or without either CuSO4 or ZnSO4. Compound-untreated samples for each metal condition were used as negative controls. S. aureus were treated for 18-20 hours at 37° C. and 5% CO2. Following the treatment period, bacterial growth was determined by measuring the absorbance of each well at 600 nm using a Biotek Cytation 3 plate reader. Measurements were then background adjusted and normalized to either the untreated control or the metal only control.

[4] = system: USA300-LAC; assay: Minimal inhibitory concentration by dose-response curves (A600); assay type: cell-based, Staphylococcus aureus; details: for Antibacterial activity (MIC) without metal: 1×RPMI 1640, no added metal
[5] = system: USA300-LAC; details: ZnSO4 titrated against compound, 1×RPMI 1640
[6] = Binding constant determination by UV/Vis-absorption titration
Experimental: Binding constants were determined using UV/Vis-absorption spectroscopy by titrating AVB with Cu(I), Cu(II), and Zn(II). Briefly, 1 mM AVB in 100% anhydrous DMSO was titrated in HEPES (4-(2-hydroxyethyl)-1-piperazineethanesulfonic acid) buffer (pH=7.2-7.4) with 800 μM CuBr, CuSO4, or ZnSO4 at the following concentrations: 0 μM, 25 μM, 50 μM, 75 μM, 100 μM, and 150 μM. Once the gradient of solutions was prepared, full spectrum UV/Vis-absorption spectroscopy was performed to detect characteristic spectral changes that occur as a consequence of metal cation binding. Binding constants were calculated by importing the spectra of individual titrations with each metal into the UV 1:1 Bindfit program.

[7] = system: erythromycin-resistant group A Streptococcus, methicillin-resistant Staphylococcus aureus, and vancomycin-resistant Enterococcus; details: cited from earlier work
[8] = reported values; cited from earlier work
[9] = system: human cells; assay: Eukaryotic toxicity assays, overall statement; assay type: cell-based; details: 0.4-30 μM ± 15 μM Zn, 24 hours
[10] = CuBr, HEPES buffer pH 7.2-7.4, UV 1:1 Bindfit
[11] = CuSO4, HEPES buffer pH 7.2-7.4, UV 1:1 Bindfit
[12] = ZnSO4, HEPES buffer pH 7.2-7.4, UV 1:1 Bindfit

Question: For c1ccc(-c2ccc(C(c3ccccc3)n3ccnc3)cc2)cc1 (stereo not shown) [bifonazole], which “Activity class in Zn-dependent screening” value [1] is on record?
Answer: Zn-activated

Question: With CO[C@H]1/C=C/O[C@@]2(C)Oc3c(C)c(O)c4c(O)c(c(/C=N/N5CCN(C)CC5)c(O)c4c3C2=O)NC(=O)/C(C)=C\C=C\[C@H](C)[C@H](O)[C@@H](C)[C@@H](O)[C@@H](C)[C@H](OC(C)=O)[C@@H]1C [Rifampicin] as the compound, how does the “Day from which resistant clones could be isolated” value [2] read?
Answer: 5 days

Question: For bacitracin-Zn, which MIC / resistance ([3]; isolate CI-2, with 25 μM ZnSO4) is on record?
Answer: fully resistant

Question: What about the MIC / resistance ([3]; isolate CI-3, with 25 μM ZnSO4) of the same compound?
Answer: fully resistant

Question: What about the MIC ([3]; isolate CI-4, with 25 μM ZnSO4) of the same compound?
Answer: 10 µM

Question: What about the MIC ([3]; isolate CI-5, with 25 μM ZnSO4) of the same compound?
Answer: 10 µM

Question: And the MIC ([3]; isolate CI-1320, with Zn)?
Answer: 2 µM

Question: And the MIC / resistance ([3]; isolate CI-1321, with Zn)?
Answer: partially resistance

Question: And the MIC / resistance ([3]; isolate CI-1323, with Zn)?
Answer: resistant to bacitracin-Zn at all concentrations tested

Question: And the MIC / resistance ([3]; isolate CI-1324, with Zn)?
Answer: resistant to bacitracin-Zn at all concentrations tested

Question: And the MIC ([3]; isolate CI-1328, with Zn)?
Answer: 2 µM

Question: And the “MIC of bacitracin-Zn relative to that of AVB-Zn” value ([4]; with 25 μM ZnSO4)?
Answer: four-fold higher

Question: Which “Activity class in Zn-dependent screening” value [1] does the source give for CN(C)CCOc1ccc(/C(=C(/CCCl)c2ccccc2)c2ccccc2)cc1 [toremifene citrate] here?
Answer: Zn-activated

Question: What does the source list for CC[C@H](C)[C@H](N)C1=N[C@H](C(=O)N[C@@H](CC(C)C)C(=O)N[C@H](CCC(=O)O)C(=O)N[C@H](C(=O)N[C@H]2CCCCNC(=O)[C@H](CC(N)=O)NC(=O)[C@@H](CC(=O)O)NC(=O)[C@H](Cc3cnc[nH]3)NC(=O)[C@@H](Cc3ccccc3)NC(=O)[C@H]([C@@H](C)CC)NC(=O)[C@@H](CCCN)NC2=O)[C@@H](C)CC)CS1 [Bacitracin] ({Ileψ(thiazoline)Cys}-L[dE]IK[dOrn]I[dF]H[dD]N; lactam 4-C)?
Answer: Zn concentration required for full activity / MIC [5]: 10 µM; Activity class in Cu-dependent screening [1]: not independent or Cu-dependent action; Activity class in Zn-dependent screening [1]: Zn-dependent; KA [6, 10]: 9299 M⁻¹; Kd [6, 10]: 108 µM; KA [6, 11]: 738,233 M^−1; Kd [6, 11]: 1.4 µM and 1.35 µM; KA [6, 12]: 172,757 M^−1; Kd [6, 12]: 5.7 µM and 5.79 µM; Antibacterial activity (MIC) without metal [4]: completely inactive; MIC ([4]; with 25 μM CuSO4, 1×RPMI 1640, 20 h 37° C.): could not be activated by Cu

Question: With CC/C(=C(\c1ccccc1)c1ccc(OCCN(C)C)cc1)c1ccccc1 [tamoxifen] as the compound, how does the “Activity class in Zn-dependent screening” value [1] read?
Answer: Zn-activated

Question: With Clc1ccccc1C(c1ccccc1)(c1ccccc1)n1ccnc1 [clotrimazole] as the compound, how does the “Activity class in Zn-dependent screening” value [1] read?
Answer: Zn-activated

Question: For CN(C)Cc1ccc2c(Cl)cc(Cl)c(O)c2n1 [PTB2], which “Zinc concentrations required for antibacterial activity” value [7] is on record?
Answer: 400 to 600 µM

Question: Which “Activity class in Zn-dependent screening” value [1] does the source give for Clc1ccc(C(Cn2ccnc2)OCc2ccsc2Cl)c(Cl)c1 (stereo not shown) [tioconazole] here?
Answer: Zn-activated

Question: For O=C(O)CN(CCN(CC(=O)O)CC(=O)O)CC(=O)O [EDTA, 2,2′,2″,2′″-(Ethane-1,2-diyldinitrilo)tetraacetic acid], which “KD of high-affinity metal chelators” value [8] is on record?
Answer: picomolar to femtomolar range

Question: Which “KD of high-affinity metal chelators” value [8] does the source give for c1ccc(CN(CCN(Cc2ccccn2)Cc2ccccn2)Cc2ccccn2)nc1 [TPEN, N,N,N′,N′-tetrakis(2-pyridinylmethyl)-1,2-ethanediamine] here?
Answer: picomolar to femtomolar range

Question: Which “Zn concentration required for full activity / MIC” value [5] does the source give for COc1ccc(C(=O)CC(=O)c2ccc(C(C)(C)C)cc2)cc1 [Avobenzone, 1-(4-tert-butylphenyl)-3-(4-methoxyphenyl)propane-1,3-dione] here?
Answer: 1.25 to 10 µM

Question: What about the “Activity class in Cu-dependent screening” value [1] of the same compound?
Answer: activated by both Zn and Cu

Question: And the “Activity class in Zn-dependent screening” value [1]?
Answer: activated by both Zn and Cu

Question: What about the KA [6, 10] of the same compound?
Answer: 6900 M⁻¹

Question: And the Kd [6, 10]?
Answer: 115 µM

Question: What about the KA [6, 11] of the same compound?
Answer: 225,279 M^−1

Question: What about the Kd [6, 11] of the same compound?
Answer: 4.43 µM

Question: And the Kd ([6]; CuSO4, HEPES buffer pH 7.2-7.4, UV 1:1 Bindfit, listed as AVB)?
Answer: 4.4 µM

Question: What about the KA [6, 12] of the same compound?
Answer: 168,982 M^−1

Question: What about the Kd [6, 12] of the same compound?
Answer: 5.92 µM

Question: And the Kd ([6]; ZnSO4, HEPES buffer pH 7.2-7.4, UV 1:1 Bindfit, listed as AVB)?
Answer: 5.9 µM

Question: What about the Cytotoxicity [9] of the same compound?
Answer: no relevant cytotoxicity

Question: And the “Antibacterial activity (MIC) without metal” value [4]?
Answer: no antibacterial activity
